{
  "source": "patent US20250312271A1",
  "about": "“GSK-3-BETA INHIBITOR-LOADED POLYMERIC SCAFFOLDS FOR THE TREATMENT OF MUSCLE INJURIES” (Rutgers, The State University of New Jersey, priority 2024, published 2025)",
  "key": {"[1]": {"tested_on": "ADSCs", "experiment": "PrestoBlue assay of ADSCs", "assay_type": "cell-based", "conditions": "day 7, 14, 21, 0.5, 1.0, 1.5 μM", "procedure": "(§1) Rosiglitazone (AVANDIA®) was added to the adipogenic medium at a final concentration of 1 μM before use. A PrestoBlue™ assay and a LIVE/DEAD viability/cytotoxicity kit were utilized to assess cell viability. Live and dead cell counts were obtained using a Celigo Image Cytometer. Cells were fixed in 4% PFA (paraformaldehyde) and stained with Oil Red O to measure lipid formation as a sign of adipocyte differentiation. Lipid formation was quantified by assessing the absorbance of Oil Red O at 515 nm."}, "[2]": {"tested_on": "3T3-L1 preadipocytes", "conditions": "cited from earlier work"}, "[3]": {"tested_on": "bone marrow-derived human mesenchymal stem cells (hMSCs)", "experiment": "Oil Red O quantification of lipid formation in adipogenic hMSC cultures", "assay_type": "cell-based", "procedure": "as §1"}, "[4]": {"tested_on": "ADSCs", "experiment": "Live/Dead quantification of ADSCs", "assay_type": "cell-based", "procedure": "as §1"}, "[5]": {"tested_on": "hMSCs", "experiment": "PrestoBlue assay of hMSCs", "assay_type": "cell-based, human", "conditions": "day 7, 14, 18, 0.5, 1.0, 1.5 μM", "procedure": "as §1"}, "[6]": {"experiment": "CHIR99021 release from polymeric scaffolds (HPLC)", "assay_type": "physicochemical", "procedure": "In this study, GSK3β inhibitor-loaded scaffolds were fabricated via electrospinning and hydrogel formation. Pluronic F127 (0.08 g) was dissolved in 1.0 ml hexafluoroisopropanol (HFP) before adding the GSK3β inhibitor. Separately, poly(lactic-co-glycolic acid) PLGA (50:50) (16%, w/v) was dissolved in HFP. The polymer solutions (PLGA/CHIR-F127 or PLGA/CHIR) were electrospun at a flow rate of 1.0 ml/h with a 14 cm distance from the 18G needle tip to the cylindrical drum, and voltages +11/−2 kV were applied. Samples (13.5 mm diameter) punched out from scaffolds were immersed in GelMA (gelatin methacrylate) (5%, w/v)/CHIR solution for 20 seconds, then crosslinked using Lithium Phenyl (2,4,6-Trimethylbenzoyl) Phosphinate (LAP, 0.5% w/v) for 2 minutes on each side under 405 nm UV. Scaffolds comprise a rapidly degrading layer of GelMA for inhibitor delivery to the injury site, and a slow-degrading layer of PLGA to provide prolonged support for tissue regeneration.\nSamples were submerged in water on a plate shaker at 400 rpm, with 200 μL replaced by fresh water at each time point."}, "[7]": {"tested_on": "adipose-derived stem cells (ADSCs)", "experiment": "Oil Red O quantification of lipid formation in adipogenic ADSC cultures", "assay_type": "cell-based", "procedure": "as §1"}, "[8]": {"tested_on": "PPARγ", "conditions": "3T3-L1 preadipocytes; cited from earlier work"}, "[9]": {"tested_on": "human skeletal muscle cells (hSkMCs)", "experiment": "Morphological assessment of lipid droplets in hSkMCs cultured with scaffolds", "assay_type": "cell-based", "conditions": "drug in both GelMA and PLGA layers", "procedure": "Human skeletal muscle cells ([…]) (5,000 cells/cm^2) were cultured in ADM and myogenic differentiation media (myodiff) with scaffolds at 200 rpm, with and without the drug in GelMA and PLGA layers to evaluate the relationship between drug concentrations and lipid formation resulting from the drug's release from the scaffold. PrestoBlueTM assay assessed cell viability."}, "[10]": {"tested_on": "hMSCs", "experiment": "Live/Dead quantification of hMSCs", "assay_type": "cell-based, human", "conditions": "day 7, 14, 18, 0.5, 1.0, 1.5 μM", "procedure": "as §1"}},
  "note": "Entries after “also recorded” stand apart in the source; their conditions may differ.",
  "data": [
    {"smiles": "Cc1cnc(-c2cnc(NCCNc3ccc(C#N)cn3)nc2-c2ccc(Cl)cc2Cl)[nH]1", "note": "[CHIR99021]", "values": [
      {"measurement": "cellular metabolic activity (PrestoBlue)", "setting": "[1]", "value": "does not negatively alter"},
      {"measurement": "differentiation of 3T3-L1 preadipocytes (Oil Red O staining)", "setting": "[2]", "value": "blocked the differentiation"},
      {"measurement": "difference in lipid formation in groups treated with CHIR99021", "setting": "[3]; hMSCs at 18 day, One-Way ANOVA, P=0.0000018", "value": "significant difference"},
      {"measurement": "lipid droplet formation (Oil Red O)", "setting": "[3]; hMSCs in ADM, CHIR99021 0.5, 1.0, 1.5 μM", "value": "decreases"},
      {"measurement": "viability (Live/Dead)", "setting": "[4]; day 7, 14, 21, 0.5, 1.0, 1.5 μM", "value": "does not negatively alter"},
      {"measurement": "percent of dead cells, ADSCs in GM versus in 1.5 μM CHIR", "setting": "[4]; day 21, 1.5 μM CHIR", "value": "No significant difference"},
      {"measurement": "cellular metabolic activity (PrestoBlue)", "setting": "[5]", "value": "does not negatively alter"},
      {"measurement": "release kinetics profile", "setting": "[6]; from polymeric scaffolds (PLGA nanofibers), in water", "value": "first-order"},
      {"measurement": "release", "setting": "[6]; within 72 hours, from polymeric scaffolds", "value": "~70", "unit": "%"},
      {"measurement": "difference in lipid formation in groups treated with CHIR99021", "setting": "[7]; ADSCs at 21 days, One-Way ANOVA, P=0.00003", "value": "significant difference"},
      {"measurement": "lipid droplet formation (Oil Red O)", "setting": "[7]; ADSCs in ADM, CHIR99021 0.5, 1.0, 1.5 μM", "value": "decreases; also recorded: inhibited lipid formation"},
      {"measurement": "PPARγ expression", "setting": "[8]", "value": "induced"},
      {"measurement": "lipid droplet suppression, CHIR99021 in both GelMA and PLGA layers", "setting": "[9]", "value": "enhances this effect"},
      {"measurement": "viability (Live/Dead)", "setting": "[10]", "value": "does not negatively alter"}
    ]}
  ]
}
